Experimental data from US20180203025A1, “HDL THERAPY MARKERS” (Cerenis Therapeutics Holding SA, priority 2014, published 2018).

Key:
[1] = test system: J774 macrophages; experiment: Cytotoxicity in J774 efflux study; format: cell-based, mouse; conditions: Study N; 30 mM; 6 hours
Procedure: J774 were seeded on 24 well plates (60,000 cells/well) and loaded with ^3H-cholesterol oxidized-LDL in DMEM 2.5% FCS. After a 24 hour equilibration (DMEM), β-cyclodextrin (0.03, 0.1, 0.3, 1, 3, 10 and 30 mM) was added for 6 hours. The percentage of efflux, assayed using the protocol of Section 8.3.6, is determined as: Medium DPM/(Medium DPM+Cell DPM)*100.

[2] = test system: ABCA1 protein in J774 macrophages; experiment: ABCA1 protein level in J774 macrophages (SDS PAGE, anti-ABCA1); format: cell-based, mouse; conditions: Study H; 250 μg/mL, 6 hours
[3] = Plasma cholesterol mobilization in apoE−/− mice; format: in vivo, mouse
Procedure: The formulation was injected in the retro-orbital vein (50 μL/mouse) of mice anaesthetized with isoflurane, once every 2 days for 8 injections. The dose administered was based on the mean of mice bodyweight in each cage. The compounds were injected at 10 AM every day. For blood sampling, mice fasted overnight were sampled once at the indicated dose: (1) at predose (at 9 AM) by retro-orbital withdrawal: 24 hours before the first injection/day of surgery; (2) at postdose (at 9 AM) by retro-orbital withdrawal: 24 hours after the last injection; and (3) at t=0 (9 AM) and the indicated time points after the 5th injection by caudal withdrawal. Immediately after collection, blood samples were kept at ca. +4° C. to avoid alteration of the blood sample. Blood specimens were centrifuged (800×g for 10 minutes at +4° C.) and plasma was saved for future analysis.
(§1) Add in each tube cholesterol standards (2 g/L): 0/0.625/1.25/1.875/2.5/3.75/5 μl. Centrifuge plasma samples at 12,000×g for 1 minute. Add 0.5 ml of the reconstituted buffer to each tube (standard and samples), vortex and incubate 5 minutes at 37° C. Transfer 150 μl from each tube to 2 different wells in a 96 well plate. Read absorbance at 500 nm.
as §1, with “of” for “of the”
This study examined the consequences of CER-001 administration on the lipoprotein profile in apoE^−/− mice fed with high fat diet. Blood was collected and analyzed at different time points after the 5th infusion. Plasma pre-dose (before the first injection) and plasma post-dose (24h after the last injection) were also compared. Plasma was analyzed for total and unesterified cholesterol and human ApoA-I contents.
Total and unesterified cholesterol concentrations were determined according to the procotols of Sections 9.2.5 and 9.2.6, respectively. Cholesterol ester concentrations are determined after subtracted unesterified cholesterol from total cholesterol. The mobilization of cholesterol was determined on 12 mice per group after the 5th administration (1 hour before injection; 1 h, 2h, 4h and 24h after injection). The animals were fasted overnight.

[4] = test system: diet-induced atherosclerosis in LDL receptor knock-out mice; conditions: several infusions; cited from earlier work
[5] = Cholesterol content in mouse feces; format: in vivo
Procedure: The left and right carotids, the liver, the spleen and the aortas connected to the heart were removed and stored at −80° C. The liver was collected in four different aliquots. The remaining biological specimens were discarded after the organ collection. For feces collection, the day of the last injection for each group, the cage was changed with a new litter and feces were collected for 24 hours (day of sacrifice).
Feces were lipid extracted and analyzed by HPLC for their cholesterol content. Feces (200 mg) were solubilized in methanol:water (50:50) solution and mixed for 1 minute with Turrax®. The solution was frozen and lyophilized overnight. The following day, 4 mL of chloroform/methanol (2:1) was added and the solution was mixed for 24 hours at 4° C. To this was added water (1.33 mL), and the solution was then mixed and centrifuged for three minutes at 3700×g. The organic phase was saved and dried. The pellet was solubilized in absolute ethanol (2 mL), and filtered on cartridge AC 0.2 μm. The cholesterol concentration in the sample was analyzed according to the method of Section 9.2.7.

[6] = test system: ABCA1 mRNA in Hepa1-6 (mouse hepatocytes); experiment: ABCA1 mRNA in Hepa1-6 hepatocytes; format: cell-based; conditions: Study K, 250 μg/mL, 6 hours
Procedure: HepG2 (human hepatocytes) and Hepa1-6 (mouse hepatocytes) were seeded on 6 well plates (300,000 cells/well) in DMEM 10% FCS. […] Gene expression was assayed using the protocols described in Sections 8.3.2 (RNA extraction); 8.3.4 (reverse transcription), and 8.3.5 (qPCR). ABCA1 (Taqman probe Hs01059118.m1 and Mm00442646.m1 for respectively HepG2 and Hepa1-6) and SR-BI (Taqman probe Hs00969821.m1 and Mm00450234.m1 for respectively HepG2 and Hepa1-6) expression was determined according to the manufacturer's protocol. The reference gene used is HPRT1 (Taqman probe: Mm00446968.m1) for Hepa1-6 and GAPDH (Taqman probe: Hs03929097.g1) for HepG2 cells.

| Molecule | cytotoxicity [1] | ABCA1 protein level [2] | plasma unesterified cholesterol concentration ([3]; 50 mg/kg, 2 and 4 hours after infusion) | post-dose total and unesterified cholesterol concentrations compared to HDL3 treated mice ([3]; 24h after the last injection) | doses increasing the cholesterol concentration in plasma compared to placebo ([3]; after 8 injections) | mobilization of unesterified cholesterol ([3]; after the 5th infusion) | total plasma cholesterol mobilization ([3]; after the 5th infusion) | vascular inflammation and atherosclerosis [4] | feces cholesterol content ([5]; feces collected 24 hours after last injection) | concentration of maximum cholesterol excretion ([5]; mouse, in vivo) | ABCA1 mRNA level [6] |
| --- | --- | --- | --- | --- | --- | --- | --- | --- | --- | --- | --- |
| OC[C@H]1O[C@@H]2O[C@H]3[C@H](O)[C@@H](O)[C@@H](O[C@H]4[C@H](O)[C@@H](O)[C@@H](O[C@H]5[C@H](O)[C@@H](O)[C@@H](O[C@H]6[C@H](O)[C@@H](O)[C@@H](O[C@H]7[C@H](O)[C@@H](O)[C@@H](O[C@H]8[C@H](O)[C@@H](O)[C@@H](O[C@H]1[C@H](O)[C@H]2O)O[C@@H]8CO)O[C@@H]7CO)O[C@@H]6CO)O[C@@H]5CO)O[C@@H]4CO)O[C@@H]3CO [β-cyclodextrin, reference compound] | cytotoxic, killing half of the cell population |  |  |  |  |  |  |  |  |  |  |
| CER-001: engineered recombinant human apolipoprotein A-I HDL with sphingomyelin and DPPG; protein-to-phospholipid ratio 1:2.7, 97% Sph and 3% DPPG |  | significant decrease of ABCA1 protein level | seemed to increase the plasma unesterified cholesterol concentration | two times higher | above 10 mg/kg | No significant changes | No significant changes | reduce vascular inflammation and promote regression of diet-induced atherosclerosis | dose-dependent increase | 10 mg/kg | two-fold decrease |
